We go through 16 compounds from the Deep4Chem optical property database.

The series is described as follows: solvent given as SMILES.

Each structure is given as a SMILES string.

For the compound `c1ccc(-c2nc(-c3ccccc3)nc(-c3cc(-n4c5ccccc5c5ccccc54)c(-n4c5ccccc5c5ncccc54)c(-n4c5ccccc5c5ccccc54)c3)n2)cc1`, the emission maximum (in C1CCOC1) turned out to be 481.97 nm; the emission maximum (in CC#N) was 535.03 nm; the emission maximum (in CCCCCC) was 422.11 nm; the emission maximum (in Cc1ccccc1) came out at 447.02 nm; the emission maximum (in ClCCl) is recorded as 507.14 nm.

Turning to `COc1ccc(-c2nc(-c3cccc(C#N)c3)[nH]c2-c2ccc(OC)cc2)cc1`, for the setting “in CO”, the emission maximum amounted to 478 nm.

Turning to `Cc1cccc2cc(-c3cc4cccc(C)c4oc3=O)oc12`, the emission maximum is, setting by setting: (in CC#N) 451 nm; (in CCOC(C)=O) 436 nm; (in CS(C)=O) 456 nm; (in Cc1ccccc1) 436 nm; (in O) 488 nm.

As for `Oc1ccc(C2=[N+]3C(=C(c4ccccc4)c4cccn4[B-]3(F)F)C=C2)cc1`, the emission maximum (in ClC(Cl)Cl) is on record as 564 nm.

As for `CN(C)c1ccc(-c2cc[n+](C)cc2)s1`, for the setting “in CCO”, the emission maximum stood at 507 nm.

As for `CCCCCCn1c(=O)c2c3oc4ccccc4oc3c3c(=O)n(CCCCCC)c(=O)c3c2c1=O`, the emission maximum (in ClCCl) is recorded as 487 nm.

For `CC1=CC(/C=C/c2ccc(N(C)C)cc2)=[N+]2C1=C(c1ccc(I)cc1)c1c(C)cc(/C=C/c3ccc(N(C)C)cc3)n1[B-]2(F)F`, the emission maximum (in CC#N) came out at 768 nm.

For the compound `N#Cc1cc(N2c3ccccc3Sc3ccccc32)cc(N2c3ccccc3Sc3ccccc32)c1`, the emission maximum (in Cc1ccccc1) amounted to 536 nm.

`C(=C\c1cc(/C=C/c2ccc(N(c3ccccc3)c3ccccc3)cc2)nc(/C=C/c2ccc(N(c3ccccc3)c3ccccc3)cc2)n1)/c1ccc(N(c2ccccc2)c2ccccc2)cc1` came in with an emission maximum (in C1CCOC1) of 514 nm; an emission maximum (in CC#N) of 589 nm; an emission maximum (in CC(C)=O) of 555 nm; an emission maximum (in CCCCCCC) of 460 nm; an emission maximum (in CS(C)=O) of 586 nm; an emission maximum (in Cc1ccccc1) of 479 nm. Also, the emission maximum (in ClCCl) was 544 nm.

In the case of `CC1=[N+]2C(=C(c3ccc(Br)cc3)c3ccc(C)n3[B-]2(F)F)C=C1c1cc2n(c1)[B-](F)(F)[N+]1=CC=CC1=C2c1c(C)cc(C)cc1C`, the emission maximum by setting is: (in C1CCCCC1) 642 nm; (in CCOC(C)=O) 670 nm.

In the case of `CCCCCCCCN1c2ccc(C#Cc3ccc(C(F)(F)F)cc3)cc2Sc2cc(C=O)ccc21`, the emission maximum (in C1CCOC1) was found to be 512 nm; the emission maximum (in CC#N) was found to be 534 nm; the emission maximum (in CCCCCC) came out at 490 nm; the emission maximum (in CO) amounted to 500 nm; the emission maximum (in CS(C)=O) is reported as 539 nm; the emission maximum (in Cc1ccccc1) amounted to 509 nm. For the setting “in ClC(Cl)Cl”, this compound returned an emission maximum of 535 nm.

`CCOC(=O)C1=C(C(=O)OCC)C2(c3ccccc3-c3ccccc32)[C@@H](c2ccc(Cl)cc2)C=C2c3cc(OC)c(OC)cc3CCN21`: the emission maximum (in ClCCl) came out at 445 nm.

`N#CC1=c2c3cccc4cccc(c43)n2[B-](F)(F)[n+]2ccccc21` returned an emission maximum (in C1CCOC1) of 530 nm; an emission maximum (in CC#N) of 527 nm; an emission maximum (in CCCCCC) of 530 nm; an emission maximum (in Cc1ccccc1) of 535 nm; an emission maximum (in ClCCl) of 530 nm.

`Oc1c(-c2cccs2)cccc1-c1nc2ccccc2s1`: the emission maximum is recorded as 585 nm (in CCO), 585 nm (in ClCCl) and 587 nm (in O).

As to `CCCCC(CC)CN1C(=O)c2cc(Oc3ccc(C(C)(C)C)cc3)c3c4c(Cl)cc5c6c(cc(Cl)c(c7c(Oc8ccc(C(C)(C)C)cc8)cc(c2c37)C1=O)c64)C(=O)N(c1c(C(C)C)cccc1C(C)C)C5=O` (stereo not drawn), for the setting “in Cc1ccccc1”, the emission maximum was determined as 606 nm.

For `CCCCC1(CCCC)c2cc(-c3ccc(C=C4C(=O)c5ccccc5C4=O)cc3)ccc2-c2ccc(-c3ccc(C=C4C(=O)c5ccccc5C4=O)cc3)cc21`, the emission maximum was found to be 532 nm (in C1CCOC1); 564 nm (in CC(C)=O); 465 nm (in CCCCCC); 596 nm (in CS(C)=O); 492 nm (in Cc1ccccc1); 527 nm (in ClC(Cl)Cl).
